Each block holds one compound with its values, some of them ahead of it.
Assays:
[1] = system: MAO-B (liver); experiment: In vivo inhibition of liver MAO-B in orally pretreated rats; parameters: species or system rat; details: 12.5-50 mg/kg p.o., 3 hr after oral dosing
Procedure: (§1) To determine MAO inhibition in brains and livers of rats pretreated with reversible inhibitors, it was necessary to use an assay procedure that minimized dilution of the inhibitor. Thus, high concentrations of brain tissue homogenates were incubated for very short incubation times. For brain assays, initial tissue was 3-fold diluted into each assay. Because of the very high MAO activity in liver homogenates, further dilution of tissue was necessary in order to obtain reliable data. In this case, three different homogenate concentrations were assayed, and precent inhibition was extrapolated to zero tissue dilution. Substrate concentrations were not saturating, but were chosen relative to Km values for serotonin and phenethylamine in order to give an estimate of MAO-A and B, respectively.
(§2) Brains from pretreated male Sprague-Dawley rats (sacrificed 3 hours after oral dosing), were homogenized in a buffer consisting of 0.1M potassium phosphate and 5% sucrose (pH 7.4) at a 1:1 tissue wt/buffer volume ratio, using a motorized Teflon/glass homogenizer. MAO-A and B were determined by incubating 100 μl of tissue homogenate with 50 μl of a double-label substrate mixture to give final concentrations of [^3 H] serotonin, 0.4 mM (5 Ci/mol); and [^14 C] β-phenethylamine, 20 μM (3 Ci/mol). […]

[2] = biological target: MAO-A; experiment: Kinetic mechanism of MAO-A inhibition (single substrate varied); format: biochemical, rat or human
Procedure: For studies of the kinetic mechanism of inhibition, the above method was used, except that a single substrate (serotonin or tyramine) was varied over a 10-fold concentration range that included the Km concentration. MAO activity was determined in the absence and presence of the compound under test at each substrate concentration in duplicate assays.

[3] = biological target: T1, MAO-A (Homo sapiens, UniProt P21397); experiment: In vitro MAO-A inhibition, double-label assay, mitochondrial extracts of human brain; format: biochemical
T1 construct: mitochondrial extracts of rat or human brain; from tissue; host or cells: human brain, mitochondrial extract
T1 sequence (P21397 1-527): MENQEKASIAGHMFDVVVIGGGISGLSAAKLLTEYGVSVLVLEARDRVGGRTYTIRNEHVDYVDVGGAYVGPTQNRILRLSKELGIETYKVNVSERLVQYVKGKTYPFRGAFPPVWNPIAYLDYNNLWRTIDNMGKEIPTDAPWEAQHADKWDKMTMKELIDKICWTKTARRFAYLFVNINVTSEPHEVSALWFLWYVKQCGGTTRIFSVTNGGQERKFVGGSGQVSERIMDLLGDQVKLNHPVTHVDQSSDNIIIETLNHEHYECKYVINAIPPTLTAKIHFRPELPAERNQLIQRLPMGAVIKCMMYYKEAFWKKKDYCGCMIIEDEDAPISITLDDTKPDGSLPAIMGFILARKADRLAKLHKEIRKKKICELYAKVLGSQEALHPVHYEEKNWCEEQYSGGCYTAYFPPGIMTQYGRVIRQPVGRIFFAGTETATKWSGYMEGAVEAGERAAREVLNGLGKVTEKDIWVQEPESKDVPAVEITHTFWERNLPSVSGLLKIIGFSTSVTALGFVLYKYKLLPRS
Procedure: (§3) MAO was assayed with [^3 H] serotonin (0.2 mM, 5 Ci/mol) and [^14 C] β-phenethylamine (10 μM, 3 Ci/mol) as substrates in a double-label assay (White and Glassman, J. Neurochem 29:987-97 1977).

[4] = system: MAO-A (brain); experiment: In vivo inhibition of brain MAO-A in orally pretreated rats; parameters: species or system rat; details: for Percentage Inhibition of MAO-A, Brain: 3 hr after oral dosing; for Inhibition of brain MAO-A by the time of tyramine administration: single oral dose, equipotent doses for tyramine test
Procedure: as §1
(§4) Brains from pretreated male Sprague-Dawley rats (sacrificed 3 hours after oral dosing), were homogenized in a buffer consisting of 0.1M potassium phosphate and 5% sucrose (pH 7.4) at a 1:1 tissue wt/buffer volume ratio, using a motorized Teflon/glass homogenizer. MAO-A and B were determined by incubating 100 μl of tissue homogenate with 50 μl of a double-label substrate mixture to give final concentrations of [^3 H] serotonin, 0.4 mM (5 Ci/mol); and [^14 C] β-phenethylamine, 20 μM (3 Ci/mol). For blank assays 100 μl portions of homogenate were pre-incubated at 37° C. with pargyline (4 mM) before substrate addition. Incubations were at 37° C. for 30 sec. Assay mixtures were then acidified and products extracted as in the above in vitro method (White and Glassman). Liver tissue was homogenized in the above phosphate-sucrose buffer at a 1:5 tissue wt/buffer volume ratio. Portions (5, 10 and 50 μ l) of each homogenate were assayed with 50 μl of the above double-label substrate mixture in a total assay volume of 150 μl 0.067M potassium phosphate, pH 7.4. Blank assays included the same amounts of homogenate pre-incubated with 4 mM pargyline for 15 min at 37° C. After addition of substrates, mixtures were incubated at 37° C. for 20 sec, acidified, and products extracted as above. Percent inhibition for each liver homogenate was obtained by plotting % inhibition vs. reciprocal of tissue concentration and extrapolating back to zero dilution.

[5] = system: hypertensive activity; experiment: Hypertensive activity with orally ingested tyramine in test animals; format: in vivo; details: oral antidepressant doses prior to orally ingested tyramine
[6] = system: MAO-A (liver); experiment: In vivo inhibition of liver MAO-A in orally pretreated rats; parameters: species or system rat; details: for Percentage Inhibition of MAO-A, Liver: 3 hr after oral dosing, extrapolated to zero tissue dilution; for Inhibition of liver MAO-A by the time of tyramine administration: single oral dose, equipotent doses for tyramine test
Procedure: as §1, §4

[7] = system: MAO-B (brain); experiment: In vivo inhibition of brain MAO-B in orally pretreated rats; parameters: species or system rat; details: 12.5-50 mg/kg p.o., 3 hr after oral dosing
Procedure: as §1, §2

[8] = system: tetrabenazine-induced sedation; experiment: Prevention of tetrabenazine-induced sedation; format: in vivo, Charles River CD-1 male mice
Procedure: Charles River CD-1 male mice (18-22 gm) were pretreated orally with various doses of Compound I or the reference standard, phenelzine, 60 min, 3 hr, or 5 hr before injection of tetrabenazine (35 mg/kg i.p.). […] Thirty minutes after injection of tetrabenazine, each mouse was scored on an arbitrary scale from one to four according to Vernier et al., ([…] Syomp. on Psychosomatic Medicine, J. H. Nodin and J. H. Moyer Eds., Lea and Febiger, Philadelphia, 1962, pp 683-90) for both depression of exploratory behaviour and presence or absence of blepharoptosis. Ratings were converted to a percent of rating received by mice receiving […] prior to tetrabenazine administration.

[9] = system: MAO; experiment: Time course of in vivo MAO inhibition after oral dosing (other experiments, tissue not stated); parameters: species or system rat; details: oral dose of 50 mg/Kg
Procedure: as §1
as §4, with “([…]),” for “(sacrificed 3 hours after oral dosing),”, “Percent inhibition for each liver homogenate was obtained by plotting % inhibition vs. reciprocal of tissue concentration and extrapolating back to zero dilution.” left out

[10] = biological target: T2, MAO-A (Rattus norvegicus, UniProt P21396); experiment: In vitro MAO-A inhibition, double-label assay, mitochondrial extracts of rat brain; format: biochemical
T2 construct: mitochondrial extracts of rat or human brain; from tissue; host or cells: rat brain, mitochondrial extract
T2 sequence (P21396 1-526): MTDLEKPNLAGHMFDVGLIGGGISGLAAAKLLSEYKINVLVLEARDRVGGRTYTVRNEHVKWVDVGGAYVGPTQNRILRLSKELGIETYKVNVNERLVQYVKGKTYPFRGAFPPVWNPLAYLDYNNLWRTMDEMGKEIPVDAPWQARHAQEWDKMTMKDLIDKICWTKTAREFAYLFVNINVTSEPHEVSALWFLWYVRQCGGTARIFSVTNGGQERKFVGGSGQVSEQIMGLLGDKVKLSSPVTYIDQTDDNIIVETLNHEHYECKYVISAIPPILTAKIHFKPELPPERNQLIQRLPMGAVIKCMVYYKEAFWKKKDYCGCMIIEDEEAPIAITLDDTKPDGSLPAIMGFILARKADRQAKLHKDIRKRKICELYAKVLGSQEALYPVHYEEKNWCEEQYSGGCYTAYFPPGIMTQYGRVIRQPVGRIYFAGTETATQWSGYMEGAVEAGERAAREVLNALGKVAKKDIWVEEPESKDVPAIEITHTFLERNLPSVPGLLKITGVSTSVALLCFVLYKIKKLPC
Procedure: as §3

[11] = read-out: I50, inhibition of MAO-A

Ki ([2]; serotonin as substrate, mitochondrial extracts of rat or human brain): 16 nM
Inhibition of MAO-A (in words) [3]: potent selective inhibition of MAO-A
IC50 [3, 11]: 50 nM
Hypertensive activity (in words) [5]: No significant hypertensive activity
Inhibition of MAO-A (in words) [10]: potent selective inhibition of MAO-A
IC50 [10, 11]: 50 nM
SMILES: CNC(=O)c1ccc2c(c1)S(=O)(=O)c1ccccc1C2=O [Compound I, 3-N-methylcarbamoylthioxanthen-9-one 10,10-dioxide]
Inhibition of MAO-B, liver [1]: no significant inhibition of MAO-B in either tissue
Mechanism of inhibition ([2]; vs. the substrates, serotonin or tyramine): competitive
Percentage Inhibition of MAO-A, Brain ([4]; 12.5 mg/kg p.o.): 37 ± 16%
Percentage Inhibition of MAO-A, Brain ([4]; 25 mg/kg p.o.): 49 ± 10%
Percentage Inhibition of MAO-A, Brain ([4]; 50 mg/kg p.o.): 78 ± 2%
Inhibition of brain MAO-A by the time of tyramine administration [4]: approximately 80%
Percentage Inhibition of MAO-A, Liver ([6]; 12.5 mg/kg p.o.): 79 ± 5%
Percentage Inhibition of MAO-A, Liver ([6]; 25 mg/kg p.o.): 94 ± 4%
Percentage Inhibition of MAO-A, Liver ([6]; 50 mg/kg p.o.): 92 ± 4%
Inhibition of liver MAO-A by the time of tyramine administration [6]: ≥ 90%
Inhibition of MAO-B, brain [7]: no significant inhibition of MAO-B in either tissue
ED50 ([8]; Mus musculus, 1.5 h, oral, 90 minutes, tetrabenazine 35 mg/kg i.p.): 49 ± 10 mg/kg
Prevention of tetrabenazine-induced sedation (in words) ([8]; oral, 90 minutes, tetrabenazine 35 mg/kg i.p.): dose-dependent prevention of tetrabenazine-induced sedation
ED50 at 3 hr after treatment (in words) ([8]; oral, 3 hr after treatment, tetrabenazine 35 mg/kg i.p.): essentially the same as those found at 90 min
ED50 at 5 hr after treatment (in words) ([8]; oral, 5 hr after treatment, tetrabenazine 35 mg/kg i.p.): essentially the same as those found at 90 min
Reversibility of the in vivo inhibition [9]: indicating reversibility of the in vivo inhibition
Time of maximum inhibition [9]: 3 to 7 h
Inhibition at 24 hours after dosing ([9]; 24 hours after dosing): negligible

SMILES: NNCCc1ccccc1 [phenelzine, reference compound]
Inhibition of brain MAO-A by the time of tyramine administration [4]: approximately 80%
Inhibition of liver MAO-A by the time of tyramine administration [6]: ≥ 90%

SMILES: COc1cc2c(cc1OC)C1CC(=O)C(CC(C)C)CN1CC2 (stereo not drawn) [tetrabenazine, reference compound]
Treated mice remaining motionless with marked blepharoptosis ([8]; tetrabenazine 35 mg/kg i.p. (challenge agent)): 90-100%

— patent US4623656A, “Method for inhibiting monoamine oxidase-A and treating depression by administering 3-N-methyl-thioxanthen-9-one carboxamide 10,10-dioxide” (priority 1984, dated 1986)
